Results: patent US4939122A, “Lipophile derivatives of muramylpeptides having properties of activating macrophages and compositions containing them” (priority 1984, dated 1990)
“And” between values parts separate entries of the source, which are not always exact repeats. Identical values can stand only once. Like-named read-outs stand apart in the source and are kept apart here.

How the values were obtained:
Klebsiella pneumoniae = assay: Anti-infectious activity in Swiss mice infected i.v. with Klebsiella pneumoniae; format: in vivo; conditions: for protective activity against lethal Klebsiella pneumoniae infection (in words): summary of observations
Protocol: In the Tables VII to XI are indicated the conditions in which the substances were administered and, according to the considered cases, the number of mice surviving 10 or 15 days later and the corresponding percentages of protection with respect to controls.

[1] = Retention of the muramylpeptide in liposomes incubated in MEM-FCS medium at 37° C.; format: physicochemical
Protocol: Liposomes produced under the same conditions, but with muramylpeptides labeled with tritium have enabled the following observations. […] The incorporation of the MDP-GDP and the stability of the latter, has also been verified in reaction tests with anti-MDP monoclonal antibodies. After incubation of these liposomes in the same medium at 37° C. for 72 hours, there is observed a constant agglutination of the liposomes with the antibody (95% of the liposome being agglutinated), this observation bearing witness to the practical absence of any loss of MDP-GDP. […] The leakage, if it was produced, would have been manifested by a decrease in the intensity of agglutination with time.

[2] = Pyrogenicity in rabbits (European Pharmacopoea); format: in vivo, rabbit; conditions: 1 mg/kg; groups of three rabits, individual animals
Source text: Certain of the compounds according to the invention show at relatively high doses, a certain pyrogenicity, whose impact is however reduced, taking into account the particularly higher therapeutic index from which they appear to benefit. This being the case, the muramylpeptides in which the group of modification by the two lipophile chains is fixed to the 6 position of the saccharide group, and of which the peptide chain is terminated by a glutamy-alpha-ester-gamma-amide group, are particularly advantageous by reason of their more reduced pyrogenicity. Testimony thereof is borne by comparative pyrogenicity measurements carried out on groups of three rabits with the two compounds more particularly studied, according to the procedure of the European Pharmacopoea, Vol. 2, 1971, pages 58-60. In fact, the following results are obtained, expressed by temperature observations observed in experimental animals to which had previously been administered 1 mg/kg of the compounds studied: for the MDP-GDP : 1°; 0.9° and 1° C.; for the 6 -0-GDP-MDPG-OnBu : 0.2°; 0.3° and 0.5° C.

bovine serumalbumin = assay: Adjuvant activity in the Swiss female mouse, passive hemagglutination titer; format: in vivo; conditions: for Primary response, passive hemagglutination titer: 100 micrograms with 500 micrograms of bovine serumalbumin at day 0, day 21, serums titrated in pools; for Secondary response, passive hemagglutination titer: booster of antigen alone at day 30, day 36, titrated separately
Protocol: At day 0, 100 micrograms of C474 were injected with 500 micrograms of bovine serumalbumin. At day 30, the animals received a booster of 100 micrograms of antigen alone. The following results were obtained:
The titers are expressed in Log 2 of the passive hemagglutination titer. At day 21, the serums were titrated in pools; at day 36, they were titrated separately.

[3] = tested on: influenza virus suspension APR/8; format: in vivo; conditions: preventive, 0.1 mg per mouse
Candida albicans = assay: Protection of mice infected by the venous route with Candida albicans; format: in vivo
[4] = Table X, 100 μg i.v. at day -1, 10^4 K. pneumoniae
[5] = Table IX, 5 × 10^4 K. pneumoniae, Gentamicin 10 μg subcutaneously 2 hours after infection, MDP or MDP-GDP 30 μg intravenously 24 hours before
[6] = Table VII, aqueous suspension, 100 μg i.v. at day -1, 10^4 K. pneumoniae
[7] = Table XI, 2 × 10^6 Candida albicans, muramylpeptide 100 μg/day/4 days i.v. (-4 to -1), amphotericin B 3 μg subcutaneously on the day of infection
[8] = Table XI, 2 × 10^6 Candida albicans, muramylpeptide 100 μg/day/4 days i.v., amphotericin B 3 μg subcutaneously

Row | Molecule | Protection (%) (Klebsiella pneumoniae; [4]) | Survival (15 d) (Klebsiella pneumoniae; [4]) | retention of the muramylpeptide in the liposomes (in words) [1] | protective activity against lethal Klebsiella pneumoniae infection (in words) (Klebsiella pneumoniae) | Protection (%) (Klebsiella pneumoniae; [6]) | Survival (15 d) (Klebsiella pneumoniae; [6]) | Survival (10 d) (Candida albicans; [7]) | further results
1 | 6-O-(beta, gamma-dipalmitoyl-L-glycerol)-capryl -N-acetyl-muramyl-L-alanyl-D-glutamine-n-butyl ester [6-0-GDP-aminocaproyl-MDPG-OnBu] | 56% | 9/16 | Quite similar observations | – | – | – | – | –
2 | 6-O-(beta, gamma-dipalmitoyl-L-glyceryl)-N-acetyl-muramyl-L-alanyl-D-glutamine-n-buty l-ester [6-0-GDP-MDPG-OnBu] | – | – | Quite similar observations | protective activity comparable | – | – | – | temperature observations (pyrogenicity) [2]: 0.2 °C and 0.3 °C and 0.5 °C; Primary response, passive hemagglutination titer (bovine serumalbumin): 2.64 Log 2; Secondary response, passive hemagglutination titer (bovine serumalbumin): 8.6 Log 2
3 | CCCCCCCCCCCCCCCC(=O)OC[C@@H](COC(=O)CC[C@@H](NC(=O)[C@H](C)NC(=O)[C@@H](C)O[C@H]1[C@H](O)[C@@H](CO)OC(O)[C@@H]1NC(C)=O)C(N)=O)OC(=O)CCCCCCCCCCCCCCC (stereo partly drawn) [MDP-GDP, alpha (N-acetyl-muramyl-L-alanyl-D-isoglutamine), beta, gamma-dipalmitoyl-sn-glycerol] | – | – | – | protective activity comparable | 65% | 32/48 | 3/16 | survival ([3]; orally): 56%; survival ([3]; subcutaneously): 44%; Protection (%) (Klebsiella pneumoniae; [5]): 16%; Survival (15 d) (Klebsiella pneumoniae; [5]): 4/24; protective activity when injected in liposomes (in words) (Klebsiella pneumoniae; in liposomes): the most active; Protection (Candida albicans; [8]): 19; Protection (Candida albicans; Table XII, aqueous suspension IOO μg × 4): 75%; Survival (10 d) (Candida albicans; Table XII, aqueous suspension IOO μg × 4, days -4, -3, -2, and -1, 10^6 Candida albicans): 6/8; activity against Candida (in words) (Candida albicans; in vivo): active; Primary response, passive hemagglutination titer (bovine serumalbumin): 3.64 Log 2; Secondary response, passive hemagglutination titer (bovine serumalbumin): 10.27 Log 2
4 | Gentamicin [reference compound] | – | – | – | – | – | – | – | Protection (%) (Klebsiella pneumoniae; [5]): 21%; Survival (15 d) (Klebsiella pneumoniae; [5]): 5/24
5 | C[C@@H]1[C@H](O)[C@@H](C)/C=C/C=C/C=C/C=C/C=C/C=C/C=C/[C@H](O[C@@H]2O[C@H](C)[C@@H](O)[C@H](N)[C@@H]2O)C[C@@H]2O[C@](O)(C[C@@H](O)C[C@@H](O)[C@H](O)CC[C@@H](O)C[C@@H](O)CC(=O)O[C@H]1C)C[C@H](O)[C@H]2C(=O)O [Amphotericin B, reference compound] | – | – | – | – | – | – | 2/16 | Protection (Candida albicans; [8]): 13
6 | CCCCOC(=O)[C@@H](CCC(N)=O)NC(=O)[C@H](C)NC(=O)[C@@H](C)O[C@H]1[C@H](O)[C@@H](CO)OC(O)[C@@H]1NC(C)=O (some centres unmarked) [MDPG-OnBu, reference compound] | – | – | – | – | 62.5% | 20/32 | – | –
7 | alpha (N-acetyl-muramyl-D-alanyl-D-isoglutamine), beta, gamma-dipalmitoyl-sn-glycerol [MDP(D,D)-GDP] | – | – | Quite similar observations | protective activity comparable | 83.3% | 20/24 | 0/16 | –
8 | CCCCCCCCCCCCCCCC(=O)OCC(COC(=O)[C@H](C)NC(=O)CC[C@@H](NC(=O)[C@@H](C)NC(=O)[C@@H](C)O[C@H]1[C@H](O)[C@@H](CO)OC(O)[C@@H]1NC(C)=O)C(N)=O)OC(=O)CCCCCCCCCCCCCCC (stereo partly drawn) [MDP(D,D)-L-Ala-GDP, alpha (N-acetyl-muramyl-D-alanyl-D-isoglutaminyl-L-alanine) beta, gamma-dipalmitoyl-sn-glycerol] | 25% | 6/16 | Quite similar observations | although active, is less so than MDP-L-Ala-GDP | – | – | – | –
9 | CCCCCCCCCCCCCCCC(=O)OCC(COC(=O)[C@H](C)NC(=O)CC[C@@H](NC(=O)[C@H](C)NC(=O)[C@@H](C)O[C@H]1[C@H](O)[C@@H](CO)OC(O)[C@@H]1NC(C)=O)C(N)=O)OC(=O)CCCCCCCCCCCCCCC (stereo partly drawn) [MDP-L-Ala-GDP, alpha (N-acetyl-muramyl-L-alanyl-D-isoglutaminyl-L-alanine), beta, gamma-dipalmitoyl-sn-glycerol] | 63% | 12/16 | Quite similar observations | – | – | – | – | –
